Where two headings read alike, the source gives them in different places.
How the values were obtained:
[1] = tested on: MCF-7 breast cancer cell line; set-up: method as in PMID 25096298; conditions: cited from earlier work
[2] = set-up: method as in doi:10.5935/0103-5053.20160038; conditions: due to optimal hydrophilicity/lipophilicity; cited from earlier work
[3] = tested on: anti-apoptotic Bcl protein; set-up: method as in PMID 20405848; conditions: cited from earlier work
[4] = MTT cytotoxicity test, normal Chang liver cells; conditions: human
From the text: (§2) For the experiments, tumor cell cultures of M-HeLa clone 11 (epithelioid carcinoma of the cervix, subline HeLa., clone M-HeLa), HuTu 80, human duodenal adenocarcinoma, MCF7—human breast adenocarcinoma (pleural fluid) collected from Institute of Cytology, Russian Academy of Sciences (St. Petersburg, Russia); PC3—prostate adenocarcinoma cell line collected from ATCC (American Type Cell Collection, Manassas, VA, USA; CRL 1435; human liver cells (Chang liver) and the Research Institute of Virology of the Russian Academy of Medical Sciences (Moscow, Russia) were used for cytotoxicity analysis.
(§3) The cytotoxic effect on cells was determined using the colorimetric method of cell proliferation—the MTT test. NADP-H-dependent cellular oxidoreductase enzymes can, under certain conditions, reflect the number of viable cells. These enzymes are able to reduce the tetrazolium dye (MTT)—3-(4,5-dimethylthiazol-2-yl)-2,5-diphenyl-tetrazolium bromide to insoluble blue-violet formazan, which crystallizes inside the cell. The amount of formazan formed is proportional to the number of cells with active metabolism. Cells were seeded on a 96-well Nunc plate at a concentration of 5 × 10^3 cells per well in a volume of 100 μL of medium and cultured in a CO2 incubator at 37 °C until a monolayer was formed. […] After 48 h of incubation of the cells with the tested compounds, the nutrient medium was removed from the plates and 100 µL of the nutrient medium without serum with MTT at a concentration of 0.5 mg/mL was added and incubated for 4 h at 37 °C. Formazan crystals were added to 100 µL of DMSO. Optical density was recorded at 540 nm on an Invitrologic microplate reader (Novosibirsk, Russia). The experiments for all compounds were repeated three times.
(§4) Statistical analysis was performed using the Mann–Whitney test (p < 0.05). Tabular and graphical data contain the averages and standard error.

[5] = tested on: Chang liver (HeLa derivative) human liver cells; experiment: MTT cytotoxicity test, normal Chang liver cells; conditions: 48 h, read-out: IC50 Chang Liver (HeLa), normal cell line
From the text: as §2, §3, §4

[6] = tested on: PC3 prostate adenocarcinoma cell line; experiment: MTT cytotoxicity test, PC3; assay type: cell-based; conditions: mean ± SD, triplicate
Protocol: (§1) Formazan crystals were added to 100 µL of DMSO. […] The experiments for all compounds were repeated three times.

[7] = tested on: Chk1, Chk2, H2AX, MDM2, p53, p21, ATR in M-HeLa cells; experiment: Multiplex analysis of DNA damage/genotoxicity markers (MILLIPLEX MAP 7-plex, Luminex); assay type: cell-based; conditions: IC50/2 and IC50, 24 h
From the text: Classical methods of assessing genotoxicity reveal mutations associated with increased or loss of function, but are not informative enough in studying the molecular mechanisms of DNA damage. The MILLIPLEX® MAP 7-plex DNA Damage/Genotoxicity Magnetic Bead kit allows to detect the expression and phosphorylation of a number of proteins involved in DNA damage, providing a faster and more accurate assessment of the state of the cell after exposure to genotoxic compounds. The 7-plex DNA Damage/Genotoxicity Magnetic Bead Kit is used to detect changes in phosphorylated Chk1 (Ser345), Chk2 (Thr68), H2AX (Ser139) and p53 (Ser15), as well as total protein levels of ATR, MDM2, and p21 in cellular lysates using the Luminex® system. […] The obtained results characterize the effect of the leading compound 7 on the DNA of M-HeLa cells at concentrations of IC50/2 and IC50. […] The fluorescence intensity of OTR markers also increases relative to the reference sample. […]
The studies were carried out according to the standard protocol. […] A total of 20 μg of total protein of each lysate diluted in MILLIPLEX® MAP Assay Buffer 2 was analyzed according to the analysis protocol (the lysate was incubated at 4 °C overnight). The mean fluorescence intensity (MFI) was detected using Luminex® system, MERCK, Kenilworth, NJ, USA.

[8] = tested on: HuTu 80 human duodenal adenocarcinoma; experiment: MTT cytotoxicity test, HuTu 80; assay type: cell-based; conditions: triplicate
Protocol: as §1

[9] = tested on: MCF-7 (human mammary duct adenocarcinoma cell line); experiment: MTT cytotoxicity test, MCF-7; assay type: cell-based; conditions: triplicate
Protocol: as §1

[10] = tested on: M-HeLa clone 11 (epithelioid carcinoma of the cervix, subline HeLa, clone M-HeLa); experiment: MTT cytotoxicity test, M-HeLa; assay type: cell-based; conditions: mean ± SD, triplicate
Protocol: as §1

[11] = lead compounds, read-out: IC50 PC3 (Table 2)
[12] = Homo sapiens, HuTu80, 48 h, mean ± SD, read-out: IC50 HuTu 80
[13] = Homo sapiens, HuTu80, mean ± SD, lead compounds, read-out: IC50 HuTu 80 (Table 2)
[14] = Homo sapiens, MCF7, 48 h, mean ± SD, read-out: IC50 MCF-7
[15] = Homo sapiens, MCF7, mean ± SD, lead compounds, read-out: IC50 MCF-7 (Table 2)
[16] = Homo sapiens, M-HeLa, 48 h, read-out: IC50 M-HeLa
[17] = Homo sapiens, M-HeLa, lead compounds, read-out: IC50 M-HeLa (Table 2)

In the case of `COc1ccc2c(c1)CCC1=C2N=c2s/c(=C\c3c[nH]c4ccc(Br)cc34)c(=O)n2C1c1ccc(Cl)cc1` (stereo not drawn) [Compound 1], the “cytotoxicity efficiency relative to doxorubicin” value [1] is listed as 1.15 times and the “absorption ability in the gastrointestinal tract” value [2] is listed as “high absorption ability”.
In the case of `COc1ccc(C2C3=C(N=c4s/c(=C\c5c[nH]c6ccc(Br)cc56)c(=O)n42)c2ccc(OC)cc2CC3)cc1` (stereo not drawn) [Compound 3], the IC50 [3] is listed as 3.4 µM.
For `CCOC(=O)C1=C(C)N=c2s/c(=C\c3ccccc3O)c(=O)n2C1c1ccccc1` (stereo not drawn) [Compound 7, ethyl (Z)-2-(2-hydroxybenzylidene)-7-methyl-3-oxo-5-phenyl-2,3-dihydro-5H-thiazolo[3,2-a]pyrimidine-6-carboxylate], the IC50 at 48 h [4] was 75 ± 5.7 µM, the IC50 ([5]; Homo sapiens, HeLa) was 75 ± 5.7 µM and the IC50 ([6]; 48 h, read-out: IC50 PC3) was 77.6 ± 6.7 µM. For the same molecule, the IC50 [6, 11] was 77.6 ± 6.7 µM, the “average fluorescence intensity of the markers Chk1, Chk2, H2AX, MDM2, p53, and p21” value ([7]; compared to untreated control) was “significantly increase” and the “fluorescence intensity of OTR markers” value ([7]; relative to the reference sample) was “increases”. The IC50 [8, 12] was 10.2 ± 0.8 µM, the IC50 [8, 13] was 10 ± 0.8 µM and the IC50 [9, 14] was 43.7 ± 3.5 µM. The IC50 [9, 15] was 43.7 ± 3.5 µM, the IC50 [10, 16] was 11.9 ± 0.9 µM and the IC50 [10, 17] was 11.9 ± 0.9 µM.
`CCOC(=O)C1=C(C)N=c2s/c(=C\c3ccccc3O)c(=O)n2C1c1cccc([N+](=O)[O-])c1` (stereo not drawn) [Compound 10, Ethyl (Z)-2-(2-hydroxybenzylidene)-7-methyl-5-(3-nitrophenyl)-3-oxo-2,3-dihydro-5H-thiazolo[3,2-a]pyrimidine-6-carboxylate] showed an IC50 at 48 h [4] of 88 ± 7 µM, an IC50 ([5]; Homo sapiens, HeLa) of 88 ± 7 µM and an IC50 ([6]; 48 h, read-out: IC50 PC3) of 56 ± 4.4 µM. For the same molecule, the IC50 [6, 11] was 56 ± 4.4 µM, the IC50 [8, 12] was 60 ± 4.7 µM and the IC50 [8, 13] was 14.6 ± 0.3 µM. It also gave an IC50 [9, 14] of 56 ± 4.5 µM, an IC50 [9, 15] of 56 ± 4.5 µM and a melting point of 187 to 189 °C. For the same molecule, the IC50 [10, 16] was 55 ± 4.4 µM and the IC50 [10, 17] was 55 ± 4.4 µM.
`COc1ccccc1C1C(C(=O)c2ccccc2)=C(C)N=c2s/c(=C\c3ccccc3O)c(=O)n21` (stereo not drawn) [Compound 11, (Z)-6-benzoyl-2-(2-hydroxybenzylidene)-5-(2-methoxyphenyl)-7-methyl-5H-thiazolo[3,2-a]pyrimidin-3(2H)-one] gave an IC50 ([5]; Homo sapiens, HeLa) of 64 ± 5.1 µM, an IC50 ([6]; 48 h, read-out: IC50 PC3) of 54 ± 4.3 µM and an IC50 [8, 12] of 39 ± 3.1 µM. The IC50 [9, 14] was 81 ± 7.4 µM, the melting point was 167 to 169 °C and the IC50 [10, 16] was 56.4 ± 4.5 µM.
`CCOC(=O)C1=C(C)N=c2s/c(=C\c3ccccc3O)c(=O)n2C1c1ccc(Br)cc1` (stereo not drawn) [Compound 12, Ethyl (Z)-5-(4-bromophenyl)-2-(2-hydroxybenzylidene)-7-methyl-3-oxo-2,3-dihydro-5H-thiazolo[3,2-a]pyrimidine-6-carboxylate] gave an IC50 at 48 h [4] of 78.2 ± 6.2 µM, an IC50 ([5]; Homo sapiens, HeLa) of 78.2 ± 6.2 µM and an IC50 ([6]; 48 h, read-out: IC50 PC3) of 28.1 ± 2.2 µM. For the same molecule, the IC50 [6, 11] was 28.1 ± 2.2 µM, the IC50 [8, 12] was 23.7 ± 1.8 µM and the IC50 [8, 13] was 23.7 ± 1.8 µM. For the same molecule, the IC50 [9, 14] was 22.3 ± 1.4 µM, the IC50 [9, 15] was 52.7 ± 4.2 µM and the melting point was 201 to 203 °C. For the same molecule, the IC50 [10, 16] was 18.8 ± 1.5 µM and the IC50 [10, 17] was 18.8 ± 1.5 µM.
With `CCOC(=O)C1=C(C)N=c2s/c(=C\c3ccc(O)cc3)c(=O)n2C1c1ccccc1` (stereo not drawn) [Compound 13, ethyl (Z)-2-(4-hydroxybenzylidene)-7-methyl-3-oxo-5-phenyl-2,3-dihydro-5H-thiazolo[3,2-a]pyrimidine-6-carboxylate] the IC50 ([5]; Homo sapiens, HeLa) was 86.1 ± 6.8 µM, the IC50 ([6]; 48 h, read-out: IC50 PC3) was 54 ± 4.3 µM and the IC50 [8, 12] was 43.3 ± 3.5 µM. The IC50 [9, 14] was greater than 100 µM and the IC50 [10, 16] was 70 ± 5.5 µM.
`CCOC(=O)C1=C(C)N=c2s/c(=C\c3ccc(O)cc3)c(=O)n2C1c1ccc(Br)cc1` (stereo not drawn) [Compound 14, Ethyl (Z)-5-(4-bromophenyl)-2-(4-hydroxybenzylidene)-7-methyl-3-oxo-2,3-dihydro-5H-thiazolo[3,2-a]pyrimidine-6-carboxylate] showed an IC50 ([5]; Homo sapiens, HeLa) of 53.2 ± 4.2 µM, an IC50 ([6]; 48 h, read-out: IC50 PC3) of 49.3 ± 3.9 µM and an IC50 [8, 12] of 32.1 ± 2.5 µM. It also gave an IC50 [9, 14] of 53.3 ± 4.2 µM, a melting point of 207 to 209 °C and an IC50 [10, 16] of 31 ± 2.4 µM.
With `CCOC(=O)C1=C(C)N=c2s/c(=C\c3ccc(O)cc3)c(=O)n2C1c1cccc([N+](=O)[O-])c1` (stereo not drawn) [Compound 15, Ethyl (Z)-2-(4-hydroxybenzylidene)-7-methyl-5-(3-nitrophenyl)-3-oxo-2,3-dihydro-5H-thiazolo[3,2-a]pyrimidine-6-carboxylate] the IC50 ([5]; Homo sapiens, HeLa) was 91.4 ± 7.2 µM, the IC50 ([6]; 48 h, read-out: IC50 PC3) was 70 ± 5.5 µM and the IC50 [8, 12] was 74.5 ± 5.7 µM. The IC50 [9, 14] was greater than 100 µM, the melting point was 190 to 192 °C and the IC50 [10, 16] was greater than 100 µM.
In the case of `CNC(=O)c1cc(Oc2ccc(NC(=O)Nc3ccc(Cl)c(C(F)(F)F)c3)cc2)ccn1` [Sorafenib, reference compound], the IC50 at 48 h [4] is reported as 21.7 ± 1.7 µM, the IC50 ([5]; Homo sapiens, HeLa) is reported as 21.7 ± 1.7 µM and the IC50 ([6]; 48 h, read-out: IC50 PC3) is reported as 12.7 ± 1.1 µM. The IC50 [6, 11] was 27.5 ± 2.2 µM, the IC50 [8, 12] was 13 ± 1.2 µM and the IC50 [8, 13] was 13 ± 1.2 µM. For the same molecule, the IC50 [9, 14] was 27.5 ± 2.2 µM, the IC50 [9, 15] was 27.5 ± 2.2 µM and the IC50 [10, 16] was 25 ± 1.8 µM. It also gave an IC50 [10, 17] of 25 ± 1.8 µM.
“ethyl (Z)-2-(2-hydroxybenzylidene)-5-(4-methoxyphenyl)-7-methyl-3-oxo-2,3-dihydro-5H-thiazolo[3,2-a]pyrimidine-6-carboxylate [Compound 8]” showed an IC50 ([5]; MTT, mean ± SD, triplicate) of 56.4 ± 4.5 µM, an IC50 ([6]; 48 h, read-out: IC50 PC3) of 93.7 ± 8.5 µM and an IC50 ([8]; 48 h, mean ± SD, read-out: IC50 HuTu 80) of 85.9 ± 8 µM. It also gave an IC50 ([9]; 48 h, mean ± SD, read-out: IC50 MCF-7) of 93.3 ± 8.2 µM and an IC50 ([10]; 48 h, read-out: IC50 M-HeLa) of 90 ± 8.3 µM.

— paper PMC9693259, “Synthesis, Self-Assembly in Crystalline Phase and Anti-Tumor Activity of 2-(2-/4-Hydroxybenzylidene)thiazolo[3,2-a]pyrimidines” (Molecules, 2022)
